Reference: US8192962B2, “Processes for detecting toxic substances” (Daikin Industries, Ltd., priority 2001, dated 2012)

Test system: Metabolism protein genes
Assay: DNA chip mRNA expression in yeast, metabolism protein genes (Table 7)
Assay type: cell-based, Saccharomyces cerevisiae S288C
Protocol: Yeast (Saccharomyces cerevisiae S288C (α SUC2mal mel gap2 CUP1)) were incubated at 25° C. on YPD medium (yeast extract 1%, polypepton 2%, glucose 2%). One of toxic chemical substances was added to the cells at logarithmic growth phase, and the cells were further incubated for two hours. Cells were cultured without any chemical substance in the same condition, and were used as control. Concentrations of the chemical substances were defined to inhibit the growth of the yeast but not lead to death.
After completion of the incubation, the culture was centrifuged to collect the cells. To the cells, sodium acetate buffer (50 mM sodium acetate, 10 mM EDTA, 1% SDS) was added, and the mixture was shaken at 65° C. for five minutes, followed by returning to room temperature, and obtaining the supernatant, of which the procedures were repeated two times. To the supernatant, ½ amount of a solution of phenol/chloroform was added, and the mixture was centrifuged to give a supernatant, which was added with an equal amount of chloroform, and the mixture was centrifuged to give a supernatant. To the supernatant, an equal amount of isopropanol containing 0.3 M sodium acetate was added, and the mixture was allowed to stand at room temperature for 30 minutes, after which the mixture was centrifuged to give a sediment of the whole RNAs. Seventy % ethanol was added to the sediment, and the mixture was again centrifuged to give a sediment, which was then dried and dissolved in water. mRNA was isolated from the whole RNAs as followings. In view of the fact that a poly A chain is attached to the 3′ terminus of mRNA, a polynucleotide having a poly T structure which was immobilized on the surface of latex beads was used to trap the mRNA, and then the mRNA was washed and eluted with spine column (Oligotex-dT30<Super>mRNA Purification Kit, Takara). Reverse transcription of the mRNA was conducted with a reverse transcriptase (Super Script II Reverse Transcriptase; catalogue No. 18064-014, GibcoBRL) using fluorescence-labeled nucleotides to give cDNAs that were introduced with Cy3-dUTP or Cy5-dUTP during the reverse transcription.
The labeled cDNAs were dissolved in TE buffer (10mM Tris-HCl/1 mM EDTA, pH8.0), and the solution was dropped on the DNA chip containing the whole genes of yeast (DNA Chip Research Inc. Japan) so that the cDNAs were hybridized on the DNA chip at 65° C. for over 12 hours. The fluoresces intensity of the DNA chip was read with a scanner, and the ratio relative to the fluorescence intensity resulting from the absence of chemical substance was estimated as the following, which is shown in Tables 1 to 9: […]

Compound: CN(C)C(=S)SSC(=S)N(C)C [(10), Tetramethylthiuram disulfide]
- The level of expressed mRNA in the presence of chemical substance/The level of expressed mRNA in the absence of chemical substance (yeast gene YFL014W): 5.8
- The level of expressed mRNA in the presence of chemical substance/The level of expressed mRNA in the absence of chemical substance (yeast gene YFL030W): 4.9
- The level of expressed mRNA in the presence of chemical substance/The level of expressed mRNA in the absence of chemical substance (yeast gene YFL031W): 0.7
- The level of expressed mRNA in the presence of chemical substance/The level of expressed mRNA in the absence of chemical substance (yeast gene YFL056C): 31.3
- The level of expressed mRNA in the presence of chemical substance/The level of expressed mRNA in the absence of chemical substance (yeast gene YFL057C): 46.1
- The level of expressed mRNA in the presence of chemical substance/The level of expressed mRNA in the absence of chemical substance (yeast gene YFR047C): 1.5
- level of expressed mRNA in the presence/in the absence of chemical substance (yeast gene YGL012W): 0.9
- The level of expressed mRNA in the presence of chemical substance/The level of expressed mRNA in the absence of chemical substance (yeast gene YGL022W): 0.4
- level of expressed mRNA in the presence/in the absence of chemical substance (yeast gene YGL115W): 1.2
- The level of expressed mRNA in the presence of chemical substance/The level of expressed mRNA in the absence of chemical substance (yeast gene YGL126W): 0.7
- The level of expressed mRNA in the presence of chemical substance/The level of expressed mRNA in the absence of chemical substance (yeast gene YGL202W): 1.7
- level of expressed mRNA in the presence/in the absence of chemical substance (yeast gene YGL205W): 0.6
- The level of expressed mRNA in the presence of chemical substance/The level of expressed mRNA in the absence of chemical substance (yeast gene YGL209W): 0.4
- The level of expressed mRNA in the presence of chemical substance/The level of expressed mRNA in the absence of chemical substance (yeast gene YGL248W): 2.9
- The level of expressed mRNA in the presence of chemical substance/The level of expressed mRNA in the absence of chemical substance (yeast gene YGL252C): 1.7
- The level of expressed mRNA in the presence of chemical substance/The level of expressed mRNA in the absence of chemical substance (yeast gene YGR037C): 1.4
- The level of expressed mRNA in the presence of chemical substance/The level of expressed mRNA in the absence of chemical substance (yeast gene YGR055W): 2.4
- level of expressed mRNA in the presence/in the absence of chemical substance (yeast gene YGR096W): 0.8
- level of expressed mRNA in the presence/in the absence of chemical substance (yeast gene YGR191W): 0.7
- The level of expressed mRNA in the presence of chemical substance/The level of expressed mRNA in the absence of chemical substance (yeast gene YGR194C): 2.1
- level of expressed mRNA in the presence/in the absence of chemical substance (yeast gene YGR204W): 2.3
- The level of expressed mRNA in the presence of chemical substance/The level of expressed mRNA in the absence of chemical substance (yeast gene YGR256W): 2.5
- The level of expressed mRNA in the presence of chemical substance/The level of expressed mRNA in the absence of chemical substance (yeast gene YGR282C): 0.8
- level of expressed mRNA in the presence/in the absence of chemical substance (yeast gene YGR288W): 2.6
- level of expressed mRNA in the presence/in the absence of chemical substance (yeast gene YHR025W): 0.4
- The level of expressed mRNA in the presence of chemical substance/The level of expressed mRNA in the absence of chemical substance (yeast gene YHR111W): 4.2
- level of expressed mRNA in the presence/in the absence of chemical substance (yeast gene YHR123W): 1.1
- The level of expressed mRNA in the presence of chemical substance/The level of expressed mRNA in the absence of chemical substance (yeast gene YHR137W): 0.9
- The level of expressed mRNA in the presence of chemical substance/The level of expressed mRNA in the absence of chemical substance (yeast gene YHR174W): 1.5
- The level of expressed mRNA in the presence of chemical substance/The level of expressed mRNA in the absence of chemical substance (yeast gene YHR176W): 6.4
- level of expressed mRNA in the presence/in the absence of chemical substance (yeast gene YHR210C): 0.9
- level of expressed mRNA in the presence/in the absence of chemical substance (yeast gene YIL006W): 1.1
- The level of expressed mRNA in the presence of chemical substance/The level of expressed mRNA in the absence of chemical substance (yeast gene YIL045W): 3.2
- The level of expressed mRNA in the presence of chemical substance/The level of expressed mRNA in the absence of chemical substance (yeast gene YIL107C): 3.5
- The level of expressed mRNA in the presence of chemical substance/The level of expressed mRNA in the absence of chemical substance (yeast gene YIL154C): 1.0
- The level of expressed mRNA in the presence of chemical substance/The level of expressed mRNA in the absence of chemical substance (yeast gene YIL155C): 2.9
- The level of expressed mRNA in the presence of chemical substance/The level of expressed mRNA in the absence of chemical substance (yeast gene YIL167W): 12.7
- The level of expressed mRNA in the presence of chemical substance/The level of expressed mRNA in the absence of chemical substance (yeast gene YIL172C): 7.1
- The level of expressed mRNA in the presence of chemical substance/The level of expressed mRNA in the absence of chemical substance (yeast gene YIR034C): 3.5
- The level of expressed mRNA in the presence of chemical substance/The level of expressed mRNA in the absence of chemical substance (yeast gene YIR036C): 1.9
- The level of expressed mRNA in the presence of chemical substance/The level of expressed mRNA in the absence of chemical substance (yeast gene YJL031C): 3.6
- The level of expressed mRNA in the presence of chemical substance/The level of expressed mRNA in the absence of chemical substance (yeast gene YJL068C): 3.1
- The level of expressed mRNA in the presence of chemical substance/The level of expressed mRNA in the absence of chemical substance (yeast gene YJL088W): 4.1
- The level of expressed mRNA in the presence of chemical substance/The level of expressed mRNA in the absence of chemical substance (yeast gene YJL099W): 3.1
- level of expressed mRNA in the presence/in the absence of chemical substance (yeast gene YJL121C): 0.4
- level of expressed mRNA in the presence/in the absence of chemical substance (yeast gene YJL167W): 0.9
- The level of expressed mRNA in the presence of chemical substance/The level of expressed mRNA in the absence of chemical substance (yeast gene YJL172W): 1.9
- The level of expressed mRNA in the presence of chemical substance/The level of expressed mRNA in the absence of chemical substance (yeast gene YJL219W): 2.3
- level of expressed mRNA in the presence/in the absence of chemical substance (yeast gene YJR077C): 0.7
- The level of expressed mRNA in the presence of chemical substance/The level of expressed mRNA in the absence of chemical substance (yeast gene YJR137C): 4.8
